Results taken from US20240041042A1, “1-(PYRIDYL)-5-AZINYLPYRAZOLE DERIVATIVES, AND THEIR USE FOR CONTROL OF UNDESIRED PLANT GROWTH” (Bayer Aktiengesellschaft, priority 2020, published 2024).
Read-outs that look alike come from different tables or passages of the source.

What was measured:
Assay type in all cases: in vivo
[1] = system: Triticum aestivum (TRZAS); details: pre-emergence, 80 g/ha, crop plant compatibility, in comparison to untreated controls
In short: (§1)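 Crop injury rated visually in percent against untreated plants roughly 3 weeks after treatment (0% no effect, 100% plants dead). Compounds, as WP or EC with 0.5% additive in 600 l/ha water, were applied to the covering soil right after sowing; greenhouse growth. Suffixes a, b, c denote different dosages.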

Lolium rigidum (LOLRI) = assay: Pre-emergence herbicidal action against LOLRI; details: dosage 320 g/ha
In short: (§2)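 Dosages of 320 g/ha or less; pre-emergence; WP or EC in aqueous spray, 0.5% additive, 600 l/ha; greenhouse; visual % effect after ~3 wk relative to control pots.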

[2] = system: Polygonum convolvulus (POLCO); assay: Post-emergence herbicidal action against POLCO
In short: (§3)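 Post-emergence greenhouse spray, one-leaf stage, 600 l/ha water plus 0.5% additive; WP or EC formulations; application rates 320 g/ha or lower. Visual % damage vs untreated controls at ~3 weeks.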

[3] = system: Pharbitis purpurea (PHBPU); assay: Pre-emergence herbicidal action against PHBPU; details: dosage 320 g/ha
In short: as §2

[4] = system: Echinochloa crus-galli (ECHCG); assay: Post-emergence herbicidal action against ECHCG; details: dosage 320 g/ha
In short: as §3

[5] = system: Amaranthus retroflexus (AMARE); assay: Post-emergence herbicidal action against AMARE
In short: as §3

Viola tricolor (VIOTR) [6] = assay: Pre-emergence herbicidal action against VIOTR
In short: as §2

Viola tricolor (VIOTR) [7] = assay: Post-emergence herbicidal action against VIOTR
In short: as §3

[8] = system: Abutilon theophrasti (ABUTH); assay: Post-emergence herbicidal action against ABUTH; details: visual rating about 3 weeks after treatment vs untreated controls (100% = plants have died, 0% = like control plants)
In short: as §3

Setaria viridis (SETVI) [9] = assay: Post-emergence herbicidal action against SETVI; details: dosage 320 g/ha
In short: as §3

[10] = system: Polygonum convolvulus (POLCO); assay: Pre-emergence herbicidal action against POLCO
In short: as §2

[11] = system: Pharbitis purpurea (PHBPU); assay: Post-emergence herbicidal action against PHBPU
In short: as §3

[12] = system: Verconica persica (VERPE); assay: Post-emergence herbicidal action against VERPE
In short: as §3

[13] = system: Verconica persica (VERPE); assay: Pre-emergence herbicidal action against VERPE
In short: as §2

[14] = system: Alopecurus myosuroides (ALOMY); assay: Pre-emergence herbicidal action against ALOMY; details: scored visually after about 3 weeks, 100% = plants have died
In short: as §2

[15] = system: Matricaria inodora (MATIN); assay: Post-emergence herbicidal action against MATIN
In short: as §3

Zea mays (ZEAMX) [16] = details: crop plant compatibility, effect vs untreated controls
In short: (§4)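 One-leaf-stage crops (2–3 wk post-sowing, sandy loam, greenhouse) sprayed on green parts; 0.5% additive, 600 l/ha water. Rated by eye ~3 wk later, % vs untreated; suffixes a/b/c mark different dosages.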

Oryza sativa (ORYSA) = details: crop plant compatibility, effect in comparison to untreated controls
In short: as §4

[17] = system: Digitaria sanguinalis (DIGSA); assay: Pre-emergence herbicidal action against DIGSA
In short: as §2

[18] = system: Matricaria inodora (MATIN); assay: Pre-emergence herbicidal action against MATIN; details: dosage 320 g/ha
In short: as §2

[19] = system: Alopecurus myosuroides (ALOMY); assay: Post-emergence herbicidal action against ALOMY; details: 320 g/ha, visual rating about 3 weeks after treatment vs untreated controls (100% = plants have died, 0% = like control plants)
In short: as §3

Avena fatua (AVEFA) [20] = assay: Post-emergence herbicidal action against AVEFA; details: 320 g/ha, visual rating about 3 weeks after treatment
In short: as §3

[21] = system: Amaranthus retroflexus (AMARE); assay: Pre-emergence herbicidal action against AMARE; details: visual scoring after about 3 weeks vs untreated controls
In short: as §2

Avena fatua (AVEFA) [22] = assay: Pre-emergence herbicidal action against AVEFA; details: 320 g/ha, visual scoring after about 3 weeks vs untreated controls
In short: as §2

Setaria viridis (SETVI) [23] = assay: Pre-emergence herbicidal action against SETVI; details: dosage 320 g/ha
In short: as §2

[24] = system: Echinochloa crus-galli (ECHCG); assay: Pre-emergence herbicidal action against ECHCG; details: dosage 320 g/ha
In short: as §2

Zea mays (ZEAMX) [25] = details: pre-emergence, crop plant compatibility, in comparison to untreated controls
In short: as §1

[26] = system: Triticum aestivum (TRZAS); details: crop plant compatibility, 80 g/ha, effect vs untreated controls
In short: as §4

[27] = system: Digitaria sanguinalis (DIGSA); assay: Post-emergence herbicidal action against DIGSA; details: 320 g/ha, visual rating about 3 weeks after treatment
In short: as §3

[28] = 80 g/ha, visual rating about 3 weeks after treatment vs untreated controls (100% = plants have died, 0% = like control plants)
[29] = 320 g/ha, visual rating about 3 weeks after treatment

SMILES	Pre-emergence action against TRZAS in % [1] [%]	Pre-emergence action against LOLRI in % (Lolium rigidum (LOLRI)) [%]	Post-emergence action against POLCO in % ([2]; dosage 80 g/ha) [%]	Post-emergence action against POLCO in % ([2]; dosage 320 g/ha) [%]	Post-emergence action against AMARE in % [5, 28] [%]	Post-emergence action against AMARE in % [5, 29] [%]	Pre-emergence action against VIOTR in % (Viola tricolor (VIOTR) [6]; 320 g/ha, Viola tricolor) [%]	Post-emergence action against VIOTR in % (Viola tricolor (VIOTR) [7]; 80 g/ha) [%]	Post-emergence action against VIOTR in % (Viola tricolor (VIOTR) [7]; 320 g/ha) [%]	Post-emergence action against ABUTH in % ([8]; 80 g/ha) [%]	Post-emergence action against ABUTH in % ([8]; 320 g/ha) [%]	Post-emergence action against PHBPU in % ([11]; dosage 320 g/ha) [%]	Post-emergence action against VERPE in % ([12]; 320 g/ha, VERPE) [%]	Post-emergence action against MATIN in % ([15]; dosage 320 g/ha) [%]	Post-emergence action against ZEAMX in % (Zea mays (ZEAMX) [16]; 80 g/ha) [%]	Post-emergence action against ORYSA in % (Oryza sativa (ORYSA); 80 g/ha) [%]	Pre-emergence action against DIGSA in % ([17]; dosage 320 g/ha) [%]	Pre-emergence action against AMARE in % ([21]; 80 g/ha) [%]	Pre-emergence action against AMARE in % ([21]; 320 g/ha) [%]	Pre-emergence action against ZEAMX in % (Zea mays (ZEAMX) [25]; 80 g/ha) [%]	further results
COC(=O)[C@@H](C)Oc1nn(-c2ncccc2F)c(-c2cccnc2)c1Br [Example I-03]	10	100	90	90	80	90	100	90	90	80	90	100	90	90	0	0	100	90	100	–	Pre-emergence action against PHBPU in % [3]: 90%; Post-emergence action against ECHCG in % [4]: 90%; Pre-emergence action against VIOTR in % (Viola tricolor (VIOTR) [6]; dosage 80 g/ha): 100%; Post-emergence action against SETVI in % (Setaria viridis (SETVI) [9]): 90%; Pre-emergence action against POLCO in % ([10]; dosage 80 g/ha): 90%; Pre-emergence action against POLCO in % ([10]; dosage 320 g/ha): 100%; Post-emergence action against PHBPU in % ([11]; dosage 80 g/ha): 90%; Post-emergence action against VERPE in % ([12]; dosage 80 g/ha): 80%; Pre-emergence action against VERPE in % ([13]; dosage 80 g/ha): 90%; Pre-emergence action against VERPE in % ([13]; dosage 320 g/ha): 100%; Pre-emergence action against ALOMY ([14]; 80 g/ha): 90%; Pre-emergence action against ALOMY ([14]; 320 g/ha): 100%; Post-emergence action against MATIN in % ([15]; dosage 80 g/ha): 80%; Pre-emergence action against DIGSA in % ([17]; 80 g/ha, visual scoring after about 3 weeks vs untreated controls): 90%; Pre-emergence action against MATIN in % [18]: 100%; Post-emergence action against ALOMY in % [19]: 100%; Post-emergence action against AVEFA in % (Avena fatua (AVEFA) [20]): 90%; Pre-emergence action against AVEFA in % (Avena fatua (AVEFA) [22]): 80%; Pre-emergence action against SETVI in % (Setaria viridis (SETVI) [23]): 100%; Pre-emergence action against ECHCG in % [24]: 80%
COC(=O)[C@@H](C)Oc1nn(-c2ncccc2F)c(-c2cccnc2)c1C#N [Example I-04]	0	90	–	90	90	90	100	–	80	90	90	100	–	–	0	0	–	90	100	0	Post-emergence action against SETVI in % (Setaria viridis (SETVI) [9]): 100%; Pre-emergence action against POLCO in % ([10]; dosage 320 g/ha): 100%; Pre-emergence action against VERPE in % ([13]; dosage 320 g/ha): 100%; Pre-emergence action against ALOMY ([14]; 320 g/ha): 100%; Post-emergence action against TRZAS in % [26]: 20%; Post-emergence action against ORYSA in % (Oryza sativa (ORYSA); 320 g/ha): 0%; Post-emergence action against DIGSA in % [27]: 80%; Pre-emergence action against MATIN in % [18]: 90%; Pre-emergence action against SETVI in % (Setaria viridis (SETVI) [23]): 100%; Pre-emergence action against ECHCG in % [24]: 90%
O=C(O)COc1nn(-c2ccccn2)c(-c2ccc(Cl)nc2)c1Cl [Example I-236]	20	90	–	80	–	80	–	–	–	–	–	80	80	80	0	0	90	–	80	20	Post-emergence action against ORYSA in % (Oryza sativa (ORYSA); 320 g/ha): 0%
CCOC(=O)COc1nn(-c2ccccn2)c(-c2ccc(Cl)nc2)c1Br [Example I-239]	20	–	80	80	–	80	–	80	80	–	–	90	80	80	0	0	90	80	90	0	Pre-emergence action against ZEAMX in % (Zea mays (ZEAMX) [25]; 320 g/ha): 20%; Post-emergence action against PHBPU in % ([11]; dosage 80 g/ha): 80%; Post-emergence action against VERPE in % ([12]; dosage 80 g/ha): 80%; Post-emergence action against ZEAMX in % (Zea mays (ZEAMX) [16]; 320 g/ha): 20%
